In US10278942B2 (PELOTON THERAPEUTICS, INC., priority 2015, dated 2019):

Assays:
786-O-Hif-Luc cells = test: Luciferase Assay (HIF responsive elements reporter); settings: read-out: Mean Luciferase EC50 (nM), 786-O-Hif-Luc cells
Experimental: A pool of infected cells were then selected against 2 μg/mL of puromycin (P8833, Sigma) for 10 days followed by limited dilution to select single clones. […] Each concentration was tested in triplicate. After about 24 hours, luciferase activity was determined using ONE-Glo Luciferase Assay Reagent (E6110, Promega) following the manufacturer's recommended procedure. EC50 were calculated using Dotmatics software.

[1] = target: T1, HIF-2α HIS TAG-PASB Domain (Homo sapiens, UniProt Q99814); test: HIF-2α Scintillation Proximity Assay (SPA); assay type: binding; settings: read-out: Scintillation Proximity Assay IC50
T1 construct: 100 nM HIF-2α HIS TAG-PASB Domain
How it was run: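 IC50 values rest on percent inhibition, where the sample signal is scaled between high and low controls. Wells contain about 100 μL: compound dispensed as 2 μL of DMSO solution, 88 μL protein-probe mix and 10 μL of beads.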

T1 sequence (Q99814 240-350 limits assumed): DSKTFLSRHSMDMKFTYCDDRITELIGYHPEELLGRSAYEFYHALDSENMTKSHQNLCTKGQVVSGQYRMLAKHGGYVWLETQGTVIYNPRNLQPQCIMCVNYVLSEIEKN

Row | Compound | EC50 (786-O-Hif-Luc cells) [nM] | IC50 [1] [nM]
1 | CC1(C)CCC(=O)[C@H](c2ccc(S(=O)(=O)C(F)(F)F)c3c2CC(F)(F)[C@H]3O)C1 [Compound 542] | > 1000 | 250 to 1000
2 | CC1(C)CC[C@@H](O)[C@H](c2ccc(S(=O)(=O)C(F)(F)F)c3c2CC(F)(F)[C@H]3O)C1 [Compound 547] | 50 to 249 | 50 to 249
3 | CS(=O)(=O)c1ccc(OCC2CC(F)(F)C2)c2c1[C@H](O)C(F)(F)[C@@H]2F [Compound 759] | 250 to 1000 | 50 to 249
4 | C[C@]1(C#N)C[C@@H](Oc2ccc(S(=O)(=O)C(F)(F)F)c3c2C[C@@H](F)[C@H]3O)C1 [Compound 794] | < 50 | < 50
5 | CCOc1ccc(S(=O)(=O)C(F)(F)F)c2c1CC(F)(F)C2O (centres unmarked) [Compound 591] | 250 to 1000 | 250 to 1000
6 | COC[C@H](C)Oc1ccc(S(=O)(=O)C(F)(F)F)c2c1CC(F)(F)[C@H]2O [Compound 660] | 250 to 1000 | 50 to 249
7 | Cc1c(S(=O)(=O)C(F)F)ccc(Oc2cc(F)cc(C#N)c2)c1C#N [Compound 33] | > 1000 | 50 to 249
8 | C[C@@H]1Cc2c(Oc3cc(F)cc(C#N)c3)ccc(S(C)(=O)=O)c2[C@@H]1O [Compound 301] | > 1000 | > 1000
9 | CS(=O)(=O)c1ccc(OC2CCC(F)(F)CC2)c2c1[C@H](O)C(F)(F)[C@@H]2F [Compound 771] | 250 to 1000 | 50 to 249
10 | Cc1c(S(=O)(=O)C(F)F)ccc(Oc2cc(F)cc(Cl)c2)c1C#N [Compound 32] | > 1000 | < 50
11 | O=S(=O)(c1ccc(-c2ccc(Cl)cc2)c2c1[C@H](O)C(F)(F)C2)C(F)(F)F [Compound 563] | 250 to 1000 | 50 to 249
12 | O=S(=O)(c1ccc(Oc2cc(Cl)cc(Cl)c2)c(Br)c1)C(F)(F)F [Compound 172] | > 1000 | 250 to 1000
13 | N#Cc1cc(F)cc(Oc2ccc3c(c2C#N)C(N)C(F)(F)S3(=O)=O)c1 (centres unmarked) [Compound 464] | > 1000 | > 1000
14 | O[C@H]1c2c(C(F)(F)F)ccc(OC(F)F)c2CC1(F)F [Compound 670] | > 1000 | > 1000
15 | O=S(=O)(c1ccc(OCC2CC2(F)F)c2c1[C@H](O)C(F)(F)C2)C(F)(F)F (some centres unmarked) [Compound 728] | < 50 | < 50
16 | O/N=C1/c2c(C(F)(F)F)ccc(OCCCF)c2[C@@H](F)C1(F)F [Compound 581] | > 1000 | < 50
17 | N#CN=S(=O)(CF)c1ccc(Oc2cc(F)cc(C#N)c2)c2c1[C@H](O)[C@H](F)C2 (some centres unmarked) [Compound 276] | 50 to 249 | 50 to 249
18 | O=S(=O)(c1ccc(O[C@H]2CCCOC2)c2c1[C@H](O)C(F)(F)C2)C(F)(F)F [Compound 731] | 50 to 249 | < 50
19 | O=S(=O)(c1ccc(Nc2cc(F)cc(F)c2)c2c1C(O)CC2)C(F)(F)F (centres unmarked) [Compound 506] | > 1000 | 250 to 1000
20 | O=S(=O)(c1ccc([C@@H]2CCC[C@H](O)C2)c2c1[C@H](O)C(F)(F)C2)C(F)(F)F [Compound 482, (S)-2,2-difluoro-4-((1R,3S)-3-hydroxycyclohexyl)-7-((trifluoromethyl)sulfonyl)-2,3-dihydro-1H-inden-1-ol] | 250 to 1000 | 250 to 1000
21 | O=S(=O)(c1ccc([C@@H]2CCC[C@@H](O)C2)c2c1[C@H](O)C(F)(F)C2)C(F)(F)F [Compound 480, (S)-2,2-difluoro-4-((1R,3R)-3-hydroxycyclohexyl)-7-((trifluoromethyl)sulfonyl)-2,3-dihydro-1H-inden-1-ol] | 50 to 249 | 50 to 249
22 | CS(=O)(=O)c1ccc(Oc2cc(F)cc(C#N)c2)c2c1[C@H](O)C[C@@H]2F [Compound 295] | 250 to 1000 | 50 to 249
23 | CS(=O)(=O)c1ccc(Oc2cc(C#N)cc(C(F)F)c2)c2c1C(O)CC2 (centres unmarked) [Compound 249] | > 1000 | 250 to 1000
24 | CCc1ccc(S(=O)(=O)C(F)(F)F)c2c1CC(F)(F)C2O (centres unmarked) [Compound 516] | > 1000 | > 1000
25 | N#Cc1cc(F)cc(Oc2ccc3c(c2C(F)F)C(O)CS3(=O)=O)c1 (centres unmarked) [Compound 374] | > 1000 | 250 to 1000
26 | Cc1nnc(/C=C/c2c(S(=O)(=O)C(F)(F)F)ccc(Oc3cc(F)cc(C#N)c3)c2C)o1 [Compound 151] | > 1000 | > 1000

Row | Compound | EC50 (786-O-Hif-Luc cells) [nM] | IC50 [1] [nM]
27 | Cc1cc(S(=O)(=O)C(F)F)ccc1Oc1cc(F)cc(Cl)c1 [Compound 135] | > 1000 | 250 to 1000
28 | O=S(=O)(c1ccc(OCC2CC2)c2c1C(O)C(F)(F)C2)C(F)(F)F (centres unmarked) [Compound 598] | 50 to 249 | 50 to 249
29 | O=S(=O)(c1ccc(Oc2cc(F)cc(F)c2)c2c1C=CC2)C(F)F [Compound 21] | > 1000 | 50 to 249
30 | O=C1c2c(S(=O)(=O)C(F)F)ccc(Oc3ccc(F)c(F)c3)c2CC1(F)F [Compound 195] | > 1000 | 50 to 249
31 | O=S(=O)(c1ccc(O[C@@H]2CCCOC2)c2c1[C@H](O)C(F)(F)C2)C(F)(F)F [Compound 730] | 50 to 249 | 50 to 249
32 | O/N=C1/c2c(C(F)(F)F)ccc(OCC(F)F)c2[C@@H](F)C1(F)F [Compound 669] | 250 to 1000 | 50 to 249
33 | Cc1cc(C#N)cc(Oc2ccc3c(c2C(F)F)[C@@H](O)C(F)(F)S3(=O)=O)c1 [Compound 392] | 50 to 249 | < 50
34 | CS(=O)(=O)c1ccc(OC[C@@H]2CC2(F)F)c2c1[C@H](O)C(F)(F)[C@@H]2F [Compound 768] | 250 to 1000 | 50 to 249
35 | CO[C@H]1C[C@@H](Oc2ccc(S(=O)(=O)C(F)(F)F)c3c2CC(F)(F)[C@H]3O)C1 [Compound 715] | 50 to 249 | < 50
36 | CC(C)(O)COc1ccc(S(=O)(=O)C(F)(F)F)c2c1CC(F)(F)[C@H]2O [Compound 750] | 250 to 1000 | 250 to 1000
37 | CS(=O)(=O)c1ccc(Oc2cc(F)cc(C#N)c2)c(C(F)F)c1C#N [Compound 94] | 250 to 1000 | 50 to 249
38 | O[C@H]1c2c(C(F)(F)F)ccc(OCCCF)c2[C@H](F)C1(F)F [Compound 701] | > 1000 | 50 to 249
39 | O=S(=O)(c1ccc(OC2CCOC2)c2c1C(O)C(F)(F)C2)C(F)(F)F (centres unmarked) [Compound 604] | 50 to 249 | 50 to 249
40 | CCCOc1ccc(I)c2c1C[C@@H](F)[C@H]2O [Compound 683] | > 1000 | > 1000
41 | N#Cc1c(Oc2cc(F)cc(F)c2)ccc2c1C(O)C(F)(F)S2(=O)=O (centres unmarked) [Compound 443] | 250 to 1000 | < 50
42 | N#Cc1cc(F)cc(-c2ccc(S(=O)(=O)C(F)(F)F)c3c2CC(F)(F)[C@H]3O)c1 [Compound 486, (S)-3-(2,2-difluoro-1-hydroxy-7((trifluoromethyl)sulfonyl)-2,3-dihydro-1H-inden-4-yl)-5-fluorobenzonitrile] | 50 to 249 | < 50
43 | O=S(=O)(c1ccc(OC2CCC2)c2c1C(O)CC2)C(F)(F)F (centres unmarked) [Compound 601] | > 1000 | 250 to 1000
44 | N#Cc1c(Oc2cc(F)cc(Cl)c2)ccc2c1[C@@H](O)CS2(=O)=O [Compound 348] | 50 to 249 | < 50
45 | CC(=O)N[C@H]1C[C@@H](Oc2ccc(S(=O)(=O)C(F)(F)F)c3c2CC(F)(F)[C@H]3O)C1 [Compound 725] | > 1000 | > 1000
46 | O=S(=O)(c1ccc(-c2cc(F)cc(Cl)c2)c2c1[C@H](O)C(F)(F)C2)C(F)(F)F [Compound 557] | 250 to 1000 | < 50
47 | C[C@@]1(F)Cc2c(Oc3cc(F)cc(C#N)c3)ccc(S(C)(=O)=O)c2[C@@H]1O [Compound 300] | > 1000 | > 1000
48 | CS(=O)(=O)c1ccc(OC[C@H]2C[C@H]2C#N)c2c1[C@H](O)C(F)(F)[C@@H]2F [Compound 765] | > 1000 | 250 to 1000
49 | O[C@@H]1CCc2c(Oc3cc(F)cc(F)c3)ccc(C(F)(F)F)c21 [Compound 58] | 50 to 249 | < 50
50 | NC(=O)Cc1ccc(S(=O)(=O)C(F)(F)F)c2c1CCC2O (centres unmarked) [Compound 523, 2-[1-hydroxy-7-(trifluoromethylsulfonyl)indan-4-yl]acetamide] | 50 to 249 | 250 to 1000
51 | O=S(=O)(c1ccc(Oc2cc(F)cc(F)c2)c2c1CC(O)C2)C(F)F (centres unmarked) [Compound 22] | > 1000 | 250 to 1000
52 | N#Cc1cc(F)cc(Oc2ccc(S(N)(=O)=O)c3c2C[C@@H](F)[C@H]3O)c1 [Compound 334] | 50 to 249 | 50 to 249
